Assay results from patent publication US20250059233A1, “USE OF THERAPEUTIC PEPTIDES” (Viage Therapeutics Inc., priority 2021, published 2025).
Structures can show the parent of a compound that is named as a salt. No end group written: not given here.

Legend:
Male ICR mice = assay: Step-down inhibitory avoidance test, scopolamine-induced memory impairment; assay type: in vivo; details: 1.5 mg/kg oral gavage once a day for 21 days; scopolamine 2 mg/kg i.p.; vs model group, P<0.01
Description: Male ICR mice, aged 4-5 weeks were used in the study.
The study was performed in step-down inhibitory avoidance equipment with dimensions 12 cm×2 cm×18 cm in each chamber (Model: YLS-3T, Shandong Yiyan Technology Co., LTD., China). The bottom of each chamber was covered with a copper grid that can be electrified. A rubber platform was placed in the right corner of each chamber.
Male ICR mice in each group were treated by oral gavage once a day for 21 days with the vehicle, Donepezil Hydrochloride (1.5 mg/kg), and the peptide […] (SEQ ID NO:2) (0.3, 10 mg/kg), respectively. Two hours after the last administration, scopolamine hydrobromide (2 mg/kg) was injected intraperitoneally to induce memory impairment.
Fifty male ICR mice were divided into 5 groups according to the average of body weight, 10 mice in each group, as detailed in Table 1. […]
Evaluation period: 24 h after the training period, the mice were placed on the rubber platform and evaluated for 5 minutes. The latency of the first jump from the platform to the copper grid was observed and counted, and the latency in seconds was analyzed to evaluate memory improvement.
All results were given as mean±SEM, and the data differences between groups were analyzed by t-test for the paired comparisons using the GraphPad Prism 8 statistical package (GraphPad Software Inc., San Diego, CA, USA). […]

AVPR1A, AVPR1B, AVPR2 = assay: Tail suspension test (TST) with vasopressin receptor inhibitors; assay type: in vivo
healthy subjects = details: human, in vivo
[1] = inhibitor given with the peptide

`COc1cc2c(cc1OC)C(=O)C(CC1CCN(Cc3ccccc3)CC1)C2` (centres unmarked) [Donepezil Hydrochloride] was tested, and the “latency of the first jump from the platform (step-down)” value (Male ICR mice) was “significantly longer than the model group”.

For `Cc1nc2c([nH]1)-c1ccccc1N(C(=O)c1ccc(NC(=O)c3ccccc3-c3ccccc3)cc1)CC2` [conivaptan], the “blocking of LSSTQAQQSY activity in a tail suspension test” value (shortened to “blocking of LSSTQAQQSY activity”) (AVPR1A, AVPR1B, AVPR2; [1]) was “blocks” and the “blocking of LSSTQAQQSY activity” value (AVPR1A, AVPR1B, AVPR2; low doses of the inhibitor) was “blocks”.

`Cc1ccccc1C(=O)Nc1ccc(C(=O)N2CCCC(O)c3cc(Cl)ccc32)c(C)c1` (centres unmarked) [tolvaptan] was tested, and the “blocking of LSSTQAQQSY activity” value (AVPR1A, AVPR1B, AVPR2; [1]) was “does not block”.

In the case of LSSTQAQQSY, the “vital signs, electrocardiography (ECG) data, and physical examinations” value (healthy subjects) is reported as “normal”.
